In publication PMC8909834, “An Orally Bioavailable and Highly Efficacious Inhibitor of CDK9/FLT3 for the Treatment of Acute Myeloid Leukemia” (Cancers, 2022):

How the values were obtained:
CDK1B = CDK1B (Homo sapiens, UniProt P06493); assay: ADP Glo kinase assay; type: biochemical; conditions: calculated from IC50 using the Cheng-Prusoff equation
Protocol: (§1) Kinase assay. The ADP Glo^TM kinase assay (Promega, Madison, WI, USA) was used to assess the inhibition by CDDD11-8 of CDKs 1, 2, 4, 6, 7, and 9, as well as the mutant isoforms of FLT3. The assays were performed in accord with the manufacturer’s protocol (Promega) as described previously. Briefly, serial three-fold dilutions of CDDD11-8 were prepared in 100% DMSO from a 2 mM stock solution, followed by 1:40 dilution into Milli-Q water. Subsequently, 1 µL of each sample was incubated with 4 µL of kinase mixture containing a particular CDK enzyme and its substrate, standard kinase buffer [3 mM MgCl2, 50 mM HEPES-NaOH pH 7.5, 3 mM MnCl2, 3 µM Na-orthovanadate, 1 mM dithiothreitol (DTT)], kinase dilution buffer (containing 0.25 mg/mL PEG20,000, 50 mM HEPES-NaOH pH 7.5, 1 mM DTT), and ATP at 37 °C for 30 to 40 min. The final reaction mixture contained 0.5% DMSO in all samples, and the applied kinase concentrations were 1, 1, 10, 40, 20, and 50 nM for CDK1, 2, 4, 6, 7, and 9, respectively. The reaction was stopped by adding ADP-Glo reagent and the mixture was incubated further in the dark at room temperature for 40 min. As a final step, kinase detection reagent was added to each mixture and incubated at room temperature for 30 to 60 min. Luminescence was read using an EnVision® multilabel plate reader (PerkinElmer, Beaconsfield, UK), and half-maximum inhibitory concentrations (IC50) were calculated using a non-linear regression model with a variable slope, plotting log (inhibitor concentration) vs. response using the following formula: Ar%=Bottom+Top−Bottom/1+Inhibitor Concentration/IC50^HillSlope where the relative activity Ar (%) is the signal relative to the controls, IC50 is the half maximum concentration, Hillslope is the steepness of the dose-response curve, Top and Bottom are plateaus reflecting the maximum and minimum in responses on the Y-axis (GraphPad Prism version 7, San Diego, CA, USA). Ki values were calculated from the IC50 using the Cheng−Prusoff equation [32]. Extensive specificity assessment was carried out by Reaction Biology Corporation (Malvern, PA, USA) with 369 kinases using 1 µM CDDD11-8 concentration in a Kinase Hotspot radiolabel assay (for experimental details, please see (Reaction Biology https://www.reactionbiology.com/). Subsequently, Ki values were determined for kinases with greater than 90% inhibition.

CDK4D1 = CDK4D1 (Homo sapiens, UniProt P11802); assay: ADP Glo kinase assay; type: biochemical; conditions: calculated from IC50 using the Cheng-Prusoff equation
Protocol: as §1

CDK6D3 = CDK6D3 (Homo sapiens, UniProt Q00534); assay: ADP Glo kinase assay; type: biochemical; conditions: calculated from IC50 using the Cheng-Prusoff equation
Protocol: as §1

FLT3 = biological target: T1, FLT3 (Homo sapiens, UniProt P36888); assay: ADP Glo kinase assay; type: biochemical; conditions: calculated from IC50 using the Cheng-Prusoff equation
T1 construct: purchased Reaction Biology Corporation (Kinase HotSpot)
Protocol: as §1

FLT3-D835Y = FLT3-D835Y (Homo sapiens, UniProt P36888, D835Y); assay: ADP Glo kinase assay; type: biochemical; conditions: calculated from IC50 using the Cheng-Prusoff equation
Protocol: as §1

FLT3-ITD = FLT3-ITD (Homo sapiens, UniProt P36888, ITD); assay: ADP Glo kinase assay; type: biochemical; conditions: calculated from IC50 using the Cheng-Prusoff equation
Protocol: as §1

MV4-11 tumors = assay: In vivo target engagement (western blot of tumor lysates); parameters: species or system mice; conditions: 75 and 125 mg/kg orally for 5 days, 4 h post final dose
Protocol: Western blotting. Western blotting was performed as described previously. Briefly, cells were lysed after incubation with different concentrations of compounds or control (0.1% DMSO) at the indicated times, samples were denatured at 95 °C for 5 min, and proteins having different molecular weights within each sample were separated by electrophoresis (Bio-Rad, Hercules, CA, USA) on polyacrylamide gels (4–20%, Bio-Rad). Resolved proteins were electrophoretically transferred onto a PVDF membrane and blocked by incubating with 10% w/v non-fat powdered milk dissolved in 1 × Tris-buffered saline-tween 20 (TBST) for 1 h at room temperature prior to incubating overnight with primary antibodies at 4 °C with slight shaking. Chemiluminescence was detected with a ChemiDoc^TM gel imaging system after the membranes have been exposed to ECL substrates (GE Healthcare, PA, USA), and the Image Lab software (Bio-Rad) was used for image capture. […] Bands were quantified using ImageJ software (US National Institutes of Health, Bethesda, MD, USA). […]

CDK4D1, sequence (P11802 whole entry): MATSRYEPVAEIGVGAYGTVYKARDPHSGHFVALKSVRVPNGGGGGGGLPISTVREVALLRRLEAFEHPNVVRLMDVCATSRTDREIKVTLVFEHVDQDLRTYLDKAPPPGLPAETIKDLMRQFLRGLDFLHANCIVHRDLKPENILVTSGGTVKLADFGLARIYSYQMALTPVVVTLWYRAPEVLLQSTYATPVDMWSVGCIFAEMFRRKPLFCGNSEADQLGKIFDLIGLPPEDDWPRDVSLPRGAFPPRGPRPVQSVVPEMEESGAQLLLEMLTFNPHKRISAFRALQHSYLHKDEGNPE
CDK4D1, sequence (P24385 whole entry partner): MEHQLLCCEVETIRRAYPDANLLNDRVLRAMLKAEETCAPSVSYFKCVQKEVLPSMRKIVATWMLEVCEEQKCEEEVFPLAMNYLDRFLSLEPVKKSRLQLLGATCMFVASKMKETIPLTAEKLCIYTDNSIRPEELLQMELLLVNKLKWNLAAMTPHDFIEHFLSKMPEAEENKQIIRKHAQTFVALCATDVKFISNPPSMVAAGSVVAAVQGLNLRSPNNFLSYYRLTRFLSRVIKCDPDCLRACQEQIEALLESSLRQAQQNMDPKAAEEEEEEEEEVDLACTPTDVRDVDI
CDK1B, sequence (P06493 whole entry, canonical isoform): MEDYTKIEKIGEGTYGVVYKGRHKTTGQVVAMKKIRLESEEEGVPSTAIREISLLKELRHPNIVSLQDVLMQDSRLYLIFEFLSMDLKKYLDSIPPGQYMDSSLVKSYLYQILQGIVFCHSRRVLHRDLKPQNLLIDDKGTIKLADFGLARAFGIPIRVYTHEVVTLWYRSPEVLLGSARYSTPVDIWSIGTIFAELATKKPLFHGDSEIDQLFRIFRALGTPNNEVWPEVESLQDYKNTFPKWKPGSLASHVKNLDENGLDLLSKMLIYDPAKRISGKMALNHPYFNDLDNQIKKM
CDK1B, sequence (P14635 whole entry partner, canonical isoform): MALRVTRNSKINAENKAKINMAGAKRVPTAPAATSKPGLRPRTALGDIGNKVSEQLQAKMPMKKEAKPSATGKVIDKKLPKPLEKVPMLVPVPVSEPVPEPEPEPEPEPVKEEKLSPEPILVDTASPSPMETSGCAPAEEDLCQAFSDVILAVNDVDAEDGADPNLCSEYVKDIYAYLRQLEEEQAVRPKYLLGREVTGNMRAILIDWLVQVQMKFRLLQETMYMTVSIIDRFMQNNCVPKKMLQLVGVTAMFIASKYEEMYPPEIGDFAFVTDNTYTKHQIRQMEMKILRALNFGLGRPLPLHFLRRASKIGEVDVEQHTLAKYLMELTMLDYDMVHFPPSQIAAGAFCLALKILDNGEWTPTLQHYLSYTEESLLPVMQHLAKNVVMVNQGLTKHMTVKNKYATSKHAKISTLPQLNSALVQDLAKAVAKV
CDK6D3, sequence (Q00534 whole entry): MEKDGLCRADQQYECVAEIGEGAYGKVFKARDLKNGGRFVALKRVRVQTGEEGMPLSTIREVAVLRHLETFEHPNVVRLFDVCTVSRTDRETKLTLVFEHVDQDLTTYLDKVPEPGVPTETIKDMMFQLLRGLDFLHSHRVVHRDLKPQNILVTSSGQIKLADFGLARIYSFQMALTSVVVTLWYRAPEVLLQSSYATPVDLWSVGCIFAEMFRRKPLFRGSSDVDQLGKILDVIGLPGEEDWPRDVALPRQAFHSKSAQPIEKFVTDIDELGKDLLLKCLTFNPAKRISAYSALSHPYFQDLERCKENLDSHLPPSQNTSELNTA
CDK6D3, sequence (P30281 whole entry partner): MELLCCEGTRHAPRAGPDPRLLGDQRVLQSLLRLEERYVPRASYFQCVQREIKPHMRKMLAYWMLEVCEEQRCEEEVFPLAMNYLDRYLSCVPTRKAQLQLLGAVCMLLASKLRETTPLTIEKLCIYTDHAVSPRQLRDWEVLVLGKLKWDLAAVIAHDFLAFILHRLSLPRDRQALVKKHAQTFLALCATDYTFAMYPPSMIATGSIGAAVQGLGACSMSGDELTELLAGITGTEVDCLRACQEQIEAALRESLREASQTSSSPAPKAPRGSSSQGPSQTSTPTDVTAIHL

With Cc1cnc(N[C@H]2CC[C@H](N)CC2)nc1-c1cnc2ccc(-c3ccccc3)cn12 [CDDD11-8] the Ki (CDK1B) was > 1000 nM, the Ki (CDK4D1) was > 1000 nM and the Ki (CDK6D3) was > 1000 nM. The Ki (FLT3) was 46 nM, the Ki (FLT3-D835Y) was 7 nM and the Ki (FLT3-ITD) was 13 nM. For the same molecule, the “level of MCL1 in tumors” value (MV4-11 tumors) was “greatly reduced”, the “phosphorylation of FLT3 at Tyr591 and STAT5 at Tyr 694 in tumors” value (MV4-11 tumors) was “reduced” and the “phosphorylation of RNAPII at Ser2 and Ser5 in tumors” value (MV4-11 tumors) was “potently inhibited”.
